The source of these data is PubChem BioAssay AID743304 (Broad Institute, 2014).

SMILES strings stand for the structures. Values joined by “and” are separate entries in the source; they are usually repeats but may differ in a detail not shown here. Equal entries are not always repeated. Active and inactive are the calls of the source.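 How the source made its calls: active means signal drop whose fitted half-maximal dose is no more than twice the top valid dose; inconclusive means flat curve with 30 to 70% inhibition, or unreliable fit; inactive means the rest, including rising signal.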

System in the first assay: not listed separately
The assay can be described thus: antifungal growth inhibition under osmotic support – sorbitol, alamar blue, dry powder, set 3, mechanism study for C. neoformans lysis project, dose response (AID 743304). The note with it: C. neoformans growth with sorbitol, alamar blue, 24 h; at 35 µM (top of the series).
As to `CC(C)c1ccccc1NCCn1c(=S)[nH]c2ccccc21`, the activity change, negative = inhibition was 1.72% (inactive).
For `Cc1ccc(C(C)C)c(OCCn2c(=S)[nH]c3cc(F)ccc32)c1`, the activity change, negative = inhibition was 9.32% (inactive).
The same measure, in the same setting: the result for `Cc1ccc(C(C)C)c(OCCn2c(=S)[nH]c3c(Cl)cccc32)c1` reads -14.9% (inactive); that for `c1ccc(OCCn2cnc3ccccc32)cc1`, 39.4% (inactive); that for `Cc1ccc(OCCn2c(=S)[nH]c3ccccc32)c(C)c1`, 7.99% (inactive).
In the case of `S=c1[nH]c2cc(Cl)ccc2n1CCOc1ccccc1`, the activity change, negative = inhibition was 17.6% (inactive).
Turning to `Cc1ccc(C(C)C)c(OCCn2c(=S)[nH]c3c(F)cccc32)c1`, the activity change, negative = inhibition is 48.2% (inactive).
The same measure, in the same setting: then `Cc1cccc(OCCn2c(=S)[nH]c3cc(C(F)(F)F)ccc32)c1`, with 8.97% (inactive); and `Cc1ccc(C)c(OCCn2c(=S)[nH]c3ccccc32)c1`, with -7.02% (inactive).
The same measure, in the same setting: then `COc1ccccc1OCCn1c(=S)[nH]c2ccccc21`, with 36.1% (inactive).
Take `Cc1ccc(C(C)C)c(OCCn2c(=S)[nH]c3c(C)cccc32)c1`: the activity change, negative = inhibition is 34.1% (inactive).
On the same count and under the same terms, the result for `Cc1ccc(C(C)C)c(OCCn2c(=S)[nH]c3ccc(Cl)cc32)c1` reads 36.9% (inactive); that for `Cc1cccc(OCCn2c(=S)[nH]c3ccc(C(F)(F)F)cc32)c1`, 24.8% (inactive).
With `Cc1ccc(C(C)C)c(OCCn2c(=S)[nH]c3ccc(F)cc32)c1`, the activity change, negative = inhibition is 14.7% (inactive).

The next assay relates to C. neoformans growth with sorbitol, alamar blue, 24 h. The description is as above.
Details: not given
Regarding `S=c1[nH]c2ccccc2n1CCOc1ccccc1Cl`, the AC50 is 24 µM.
Same read-out and setting: then `S=c1[nH]c2ccccc2n1CCOc1ccccc1`, with 24.5 µM; and `CC(C)(C)c1ccc(OCCn2cnc3ccccc32)cc1`, with 8.05 µM; and `Cc1cccc2[nH]c(=S)n(CCOc3ccccc3)c12`, with 14.2 µM.
As to `Fc1ccc2[nH]c(=S)n(CCOc3ccccc3)c2c1`, the AC50 was 23.5 µM.
With `COc1cccc(OCCn2c(=S)[nH]c3ccccc32)c1`, the AC50 is 26.1 µM.
Still for that read-out and setting: then `Cc1ccc(OCCn2cnc3ccccc32)cc1`, with 5.96 µM; and `Fc1ccc2c(c1)[nH]c(=S)n2CCOc1ccccc1`, with 25 µM and 23.1 µM.
The same measure, in the same setting: the result for `Cc1ccc(C(C)C)c(OCCn2c(=S)[nH]c3cccc(Cl)c32)c1` reads 7.25 µM.
Consider `Cc1ccc(OCCn2c(=S)[nH]c3ccccc32)cc1`, for which the AC50 was 6.11 µM.
As to `Cc1ccc(OCCn2c(C)nc3ccccc32)cc1`, the AC50 was 6.48 µM.
The same measure, in the same setting: the result for `Cc1ccc(C(C)C)c(OCCn2c(=S)[nH]c3cccc(C)c32)c1` reads 16.4 µM; that for `O=c1[nH]c2ccccc2n1CCOc1ccccc1`, 24.1 µM; that for `Cc1ccc(C(C)C)c(OCCn2c(CO)nc3ccccc32)c1`, 33.6 µM.
On to `CC(C)(C)c1ccc(OCCn2c(=S)[nH]c3ccccc32)cc1`, for which the AC50 is 4.94 µM.
`Cc1cccc(OCCn2c(=S)[nH]c3ccccc32)c1`: the AC50 is 22.4 µM.
Same read-out and setting: the result for `Cc1cccc(OCCn2c(=S)[nH]c3c(F)cccc32)c1` reads 16.4 µM and 16.6 µM.
Same read-out and setting: then `Cc1cccc(OCCn2c(=S)[nH]c3ccccc32)c1C`, with 6.75 µM.
Same read-out and setting: the result for `CC(C)(C)c1ccccc1OCCn1c(=S)[nH]c2ccccc21` reads 8.32 µM; that for `Fc1ccc(OCCn2c(=S)[nH]c3ccccc32)cc1`, 27.3 µM.
As to `Cc1ccc(OCCn2c(SCCO)nc3ccccc32)c(C(C)C)c1`, the AC50 was 8.48 µM.
On the same count and under the same terms, then `Cc1ccc(C(C)C)c(OCCn2c(=S)[nH]c3ccccc32)c1`, with 6.96 µM and 7.67 µM; and `Fc1ccccc1OCCn1c(=S)[nH]c2ccccc21`, with 21.9 µM; and `CC(C)c1ccc(OCCn2c(=S)[nH]c3ccccc32)cc1`, with 4.21 µM.
Same read-out and setting: the result for `Cc1ccc2c(c1)[nH]c(=S)n2CCOc1ccccc1` reads 11.6 µM and 12.9 µM; that for `Cc1ccccc1OCCn1c(=S)[nH]c2ccccc21`, 31.2 µM.
On the same count and under the same terms, then `Cc1ccc(OCCn2cnc3ccccc32)c(C(C)C)c1`, with 24 µM.
For the molecule `COc1ccc(OCCn2c(=S)[nH]c3ccccc32)cc1`, the AC50 is 26.2 µM.
The same measure, in the same setting: the result for `S=c1[nH]c2cccc(Cl)c2n1CCOc1ccccc1` reads 5.74 µM and 5.16 µM.
For the molecule `Cc1ccc(OCCn2c(=S)[nH]c3ccccc32)c(C(C)C)c1`, the AC50 is 10.2 µM and 6.37 µM.
Same read-out and setting: the result for `S=c1[nH]c2ccccc2n1CCOc1ccc(Cl)cc1` reads 6.3 µM; that for `CCOc1ccc(OCCn2c(=S)[nH]c3ccccc32)cc1`, 11.1 µM; that for `Cc1ccc(C(C)C)c(OCCn2c(=S)[nH]c3cccc(F)c32)c1`, 10.9 µM.
Same read-out and setting: the result for `Cc1cccc(OCCn2c(=S)[nH]c3cc(F)ccc32)c1` reads 11.2 µM and 10.4 µM; that for `Fc1cccc2c1[nH]c(=S)n2CCOc1ccccc1`, 21.4 µM and 22.2 µM and 23.1 µM.
The same measure, in the same setting: then `CC(C)c1ccccc1OCCn1c(=S)[nH]c2ccccc21`, with 18.4 µM; and `Fc1cccc(OCCn2c(=S)[nH]c3ccccc32)c1`, with 20.5 µM.

By AC50 is commonly meant the concentration giving half of the maximal activity seen.
